Active and inactive are the calls of the source. The rule behind the calls is not given here.
How the values were obtained:
Rattus norvegicus [1] = assay: Antihypertensive activity in spontaneously hypertensive rat assessed as drop in mean systolic blood pressure at 100 mg/kg, po after 4 hrs by tail cuff method relative to vehicle-treated control; assay type: functional
Rattus norvegicus [2] = assay: Antihypertensive activity in spontaneously hypertensive rat assessed as drop in mean systolic blood pressure at 100 mg/kg, po after 24 hrs by tail cuff method relative to vehicle-treated control; assay type: functional
Rattus norvegicus [3] = assay: Antihypertensive activity in spontaneously hypertensive rat assessed as drop in mean systolic blood pressure at 100 mg/kg, po followed by second dosing at 24 hrs measured after 28 hrs by tail cuff method relative to vehicle-treated control; assay type: functional
Rattus norvegicus [4] = assay: Antihypertensive activity in spontaneously hypertensive rat assessed as drop in mean systolic blood pressure at 100 mg/kg, po followed by second dosing at 24 hrs measured after 48 hrs by tail cuff method relative to vehicle-treated control; assay type: functional
[5] = Toxicity in ip dosed CF-1 mouse after 48 hrs; conditions: in vivo

Row | SMILES | Activity (Rattus norvegicus [1]; Artery) | Activity (Rattus norvegicus [2]; Artery) | Activity (Rattus norvegicus [3]; Artery) | Activity (Rattus norvegicus [4]; Artery) | LD50 at 48 h [5] | Activity (Rattus norvegicus [1]) | Activity (Rattus norvegicus [2]) | Activity (Rattus norvegicus [3]) | Activity (Rattus norvegicus [4])
1 | O=C(CCCl)NNc1nncc(-c2ccc(Cl)cc2)n1 | inactive | inactive | inactive | inactive | 237 mg/kg |  |  |  | 
2 | COc1ccc(-c2cnnc(NN)n2)cc1 |  |  |  |  | 56 mg/kg | 48 mmHg | 26 mmHg | 38 mmHg | 22 mmHg
3 | Cc1ccc(-c2cnnc(NNC(=O)Cc3ccccc3)n2)cc1 | inactive | inactive | inactive | inactive | 237 mg/kg |  |  |  | 
4 | Br.CC(N)C(=O)NNc1nncc(-c2cccc(Cl)c2)n1.O (stereo unspecified) | inactive | inactive | inactive | inactive | 178 mg/kg |  |  |  | 
5 | Cc1ccc(-c2cnnc(NN)n2)cc1.O |  |  |  |  | 224 mg/kg | 62 mmHg | 28 mmHg | 75 mmHg | 38 mmHg
6 | CNNc1nncc(-c2ccccc2)n1 |  |  |  |  | 178 mg/kg | 0 mmHg | 49 mmHg | 56 mmHg | 92 mmHg
7 | Cc1ccc(-c2cnnc(NNC(=O)C34CC5CC(CC(C5)C3)C4)n2)cc1.Cl |  |  |  |  | 216 mg/kg | 32 mmHg | 0 mmHg | 24 mmHg | 30 mmHg
8 | CC(C)C(=O)NNc1nncc(-c2ccccc2)n1.Cl |  |  |  |  | 178 mg/kg | 44 mmHg | 46 mmHg | 98 mmHg | 83 mmHg
9 | O=C(NNc1nncc(-c2ccccc2)n1)C1CCCCC1 |  |  |  |  | 237 mg/kg | 24 mmHg | 51 mmHg | 76 mmHg | 79 mmHg
10 | O=C(NNc1nncc(-c2cccc(Cl)c2)n1)C(F)(F)F |  |  |  |  | 237 mg/kg | 0 mmHg | 0 mmHg | 64 mmHg | 59 mmHg
11 | O=C(CCl)NNc1nncc(-c2ccccc2)n1 |  |  |  |  | 100 mg/kg | 63 mmHg | 74 mmHg | 101 mmHg | 55 mmHg
12 | CNNc1nncc(-c2cccc(Cl)c2)n1 |  |  |  |  | 237 mg/kg | 28 mmHg | 35 mmHg | 63 mmHg | 51 mmHg
13 | O=C(NNc1nncc(-c2ccc(Cl)cc2)n1)C(F)(F)F |  |  |  |  | 237 mg/kg | 30 mmHg | 46 mmHg | 92 mmHg | 74 mmHg
14 | CC(=O)NNc1nncc(-c2ccc(C)cc2)n1.O | inactive | inactive | inactive | inactive | > 300 mg/kg |  |  |  | 
15 | COc1ccc(-c2cnnc(NNC(C)=O)n2)cc1 | inactive | inactive | inactive | inactive | 237 mg/kg |  |  |  | 
16 | CC(=O)NNc1nncc(-c2ccc(Cl)c(Cl)c2)n1 | inactive | inactive | inactive | inactive | 237 mg/kg |  |  |  | 
17 | NNc1nncc(-c2ccc(Cl)cc2)n1 |  |  |  |  | 237 mg/kg | 52 mmHg | 61 mmHg | 90 mmHg | 87 mmHg
18 | Cc1ccc(-c2cnnc(NNC(=O)C(F)(F)F)n2)cc1 | inactive | inactive | inactive | inactive | > 300 mg/kg |  |  |  | 

Row | SMILES | Activity (Rattus norvegicus [1]; Artery) | Activity (Rattus norvegicus [2]; Artery) | Activity (Rattus norvegicus [3]; Artery) | Activity (Rattus norvegicus [4]; Artery) | LD50 at 48 h [5] | Activity (Rattus norvegicus [1]) | Activity (Rattus norvegicus [2]) | Activity (Rattus norvegicus [3]) | Activity (Rattus norvegicus [4])
19 | NNc1nncc(-c2ccc(Cl)c(Cl)c2)n1 | inactive | inactive | inactive | inactive | > 300 mg/kg |  |  |  | 
20 | Br.CC(N)C(=O)NNc1nncc(-c2ccc(Cl)cc2)n1.O (stereo unspecified) |  |  |  |  | 237 mg/kg | 44 mmHg | 58 mmHg | 91 mmHg | 103 mmHg
21 | NNc1nncc(-c2cccc(C(F)(F)F)c2)n1 |  |  |  |  | 316 mg/kg | 26 mmHg | 0 mmHg | 48 mmHg | 40 mmHg
22 | Br.NC(Cc1ccccc1)C(=O)NNc1nncc(-c2ccccc2)n1.O (stereo unspecified) |  |  |  |  | 178 mg/kg | 26 mmHg | 38 mmHg | 75 mmHg | 82 mmHg
23 | Cl.O=C(Cc1ccccc1)NNc1nncc(-c2ccccc2)n1 | inactive | inactive | inactive | inactive | 237 mg/kg |  |  |  | 
24 | Br.CC(C)C(N)C(=O)NNc1nncc(-c2ccc(Cl)cc2)n1.O (stereo unspecified) |  |  |  |  | 178 mg/kg |  |  |  | 
25 | NNc1nncc(-c2cccc(Cl)c2)n1 |  |  |  |  | 237 mg/kg | 0 mmHg | 0 mmHg | 55 mmHg | 51 mmHg
26 | CNNc1nncc(-c2ccc(Cl)cc2)n1 |  |  |  |  | 316 mg/kg | 0 mmHg | 12 mmHg | 39 mmHg | 53 mmHg
27 | CCCCCC(=O)NNc1nncc(-c2ccccc2)n1.Cl |  |  |  |  | 178 mg/kg | 53 mmHg | 53 mmHg | 81 mmHg | 68 mmHg
28 | CCC(=O)NNc1nncc(-c2ccc(Cl)cc2)n1 |  |  |  |  | 237 mg/kg | 47 mmHg | 79 mmHg | 107 mmHg | 111 mmHg
29 | CC(=O)NNc1nncc(-c2ccccc2)n1 |  |  |  |  | 178 mg/kg | 40 mmHg | 94 mmHg | 106 mmHg | 104 mmHg
30 | O=C(NNc1nncc(-c2ccccc2)n1)C(F)(F)F |  |  |  |  | 178 mg/kg | 51 mmHg | 29 mmHg | 70 mmHg | 88 mmHg
31 | O=C(NNc1nncc(-c2ccccc2)n1)C(Cl)Cl |  |  |  |  | 178 mg/kg | 33 mmHg | 54 mmHg | 106 mmHg | 80 mmHg
32 | CNNc1nncc(-c2ccc(C)cc2)n1 | inactive | inactive | inactive | inactive | 316 mg/kg |  |  |  | 
33 | O=C(CCCCl)NNc1nncc(-c2ccc(Cl)cc2)n1 |  |  |  |  | 237 mg/kg | 0 mmHg | 25 mmHg | 48 mmHg | 73 mmHg
34 | Cl.O=C(NNc1nncc(-c2ccc(Cl)cc2)n1)C(Cl)(Cl)Cl | inactive | inactive | inactive | inactive | 237 mg/kg |  |  |  | 
35 | O=C(NNc1nncc(-c2ccccc2)n1)c1ccccc1 | inactive | inactive | inactive | inactive | > 300 mg/kg |  |  |  | 
